Data: ChEMBL document CHEMBL1201862, “PubChem BioAssay data set” (2004)
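Growth conditions: 96-well plates. Treatment: test compound, 48 hours, 5 concentrations. Analysis: linear interpolation between bracketing concentrations; unreached endpoints set to highest concentration. GI50 = concentration required for 50% inhibition of growth.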 The source made the active and inactive calls. Rule as the data show it: active = GI50 up to about 1.1 µM and inactive = higher.

Experiments:
Experiment in all cases: inhibition of tumour cell growth, NCI panel, 48 h
[1] = system: PC-3
[2] = system: SF-295
[3] = system: SNB-19
[4] = system: MCF7
[5] = system: UO-31
[6] = system: EKVX
[7] = system: U-251
[8] = system: CAKI-1
[9] = system: HCT-15
[10] = system: HT-29
[11] = system: K562
[12] = system: UACC-62
[13] = system: CCRF-CEM
[14] = system: SN12C
[15] = system: Malme-3M
[16] = system: SNB-75
[17] = system: UACC-257
[18] = system: HL-60
[19] = system: RXF 393
[20] = system: A498

SMILES | GI50 [1] | GI50 [2] | GI50 [3] | GI50 [4] | GI50 [5] | GI50 [6] | GI50 [7] | GI50 [8] | GI50 [9] | GI50 [10] | GI50 [11] | GI50 [12] | GI50 [13] | GI50 [14] | GI50 [15] | GI50 [16] | GI50 [17] | GI50 [18] | GI50 [19] | GI50 [20]
O=C(CCCCCNC(=O)c1ccc(Cl)cc1)NO | 2.86 µM (inactive) | 8.91 µM (inactive) | 15 µM (inactive) | 6.21 µM (inactive) | 6.53 µM (inactive) | 8.97 µM (inactive) | 5.04 µM (inactive) | 4.05 µM (inactive) | 15.3 µM | 2.98 µM (inactive) | 2.84 µM (inactive) | 3.03 µM (inactive) | 2.42 µM (inactive) | 5.51 µM (inactive) | 2.61 µM (inactive) | 1.49 µM (inactive) | 2.72 µM (inactive) | 3.77 µM (inactive) | 3.66 µM (inactive) | –
Cc1ccc(-c2c(C#N)c(-c3ccccc3)n(NS(=O)(=O)c3ccccc3)c(=O)c2C#N)cc1 | 48.1 µM (inactive) | 60.7 µM (inactive) | 76 µM (inactive) | 76.2 µM (inactive) | – | > 100 µM (inactive) | 81.7 µM (inactive) | > 100 µM (inactive) | 60 µM | > 100 µM (inactive) | > 100 µM (inactive) | 95.5 µM (inactive) | 32.1 µM (inactive) | > 100 µM (inactive) | 61.5 µM (inactive) | 67.6 µM (inactive) | > 100 µM (inactive) | – | 63.4 µM (inactive) | > 100 µM (inactive)
C[C@H](c1ccccc1)n1c(N)c(-c2nc3ccccc3s2)c2ccc([N+](=O)[O-])cc2c1=O | 3.09 µM (inactive) | 4.7 µM (inactive) | 3.49 µM (inactive) | 9.27 µM (inactive) | 3.83 µM (inactive) | 25.1 µM (inactive) | 3.66 µM (inactive) | 15.4 µM (inactive) | 4.76 µM | 5.37 µM (inactive) | 1.23 µM (inactive) | 4.33 µM (inactive) | 0.773 µM (active) | 8.32 µM (inactive) | 12.9 µM (inactive) | 4.58 µM (inactive) | 11.8 µM (inactive) | 0.327 µM (active) | – | 11 µM (inactive)
COc1ccc(N2C(=O)C3c4[nH]c5ccccc5c4C4C(C)CCCC4C3C2=O)cc1 (stereo not given) | 17.7 µM (inactive) | 16.4 µM (inactive) | > 44.6 µM (inactive) | 37.2 µM (inactive) | > 76.7 µM (inactive) | > 39.4 µM (inactive) | > 57.7 µM (inactive) | 36.1 µM (inactive) | > 34 µM | 29.7 µM (inactive) | 9.14 µM (inactive) | 48.8 µM (inactive) | 5.66 µM (inactive) | 40.9 µM (inactive) | 8.69 µM (inactive) | 19.7 µM (inactive) | 39.3 µM (inactive) | – | > 26.6 µM (inactive) | 45.5 µM (inactive)
CC(C)(C)OC(=O)NCCC1CNc2ccccc21 (stereo not given) | > 100 µM (inactive) | > 100 µM (inactive) | > 100 µM (inactive) | > 100 µM (inactive) | > 100 µM (inactive) | > 100 µM (inactive) | > 100 µM (inactive) | > 100 µM (inactive) | > 100 µM | > 100 µM (inactive) | > 100 µM (inactive) | > 100 µM (inactive) | – | – | > 100 µM (inactive) | > 100 µM (inactive) | > 100 µM (inactive) | – | > 100 µM (inactive) | > 100 µM (inactive)
Nc1nc(-c2ccccc2)cc(-c2ccc(OCc3ccccc3)cc2O)n1 | 34.4 µM (inactive) | 36.4 µM (inactive) | 50.2 µM (inactive) | 32.1 µM (inactive) | 38.1 µM (inactive) | 50.4 µM (inactive) | 31.8 µM (inactive) | 57.1 µM (inactive) | 32.2 µM | 37.8 µM (inactive) | 43 µM (inactive) | 64.7 µM (inactive) | 17 µM (inactive) | 76.9 µM (inactive) | 24.2 µM (inactive) | 67.6 µM (inactive) | 48.8 µM (inactive) | – | 27.5 µM (inactive) | 60.3 µM (inactive)
CCOP(=O)(OCC)C1CC(O)CN1OC(=O)C(C)(C)C (stereo not given) | > 100 µM (inactive) | > 100 µM (inactive) | > 100 µM (inactive) | > 100 µM (inactive) | > 100 µM (inactive) | > 100 µM (inactive) | > 100 µM (inactive) | – | > 100 µM | > 100 µM (inactive) | > 100 µM (inactive) | > 100 µM (inactive) | > 100 µM (inactive) | > 100 µM (inactive) | > 100 µM (inactive) | > 100 µM (inactive) | > 100 µM (inactive) | – | – | > 100 µM (inactive)
COC(=O)C1CCC(=O)N1C(c1cc(OC)c(OC)c(OC)c1)c1cccc2ccccc12 (stereo not given) | > 100 µM (inactive) | > 100 µM (inactive) | > 100 µM (inactive) | > 100 µM (inactive) | 61.2 µM (inactive) | > 100 µM (inactive) | > 100 µM (inactive) | – | 71.1 µM | 35.6 µM (inactive) | 75.9 µM (inactive) | 45 µM (inactive) | – | > 100 µM (inactive) | – | 61 µM (inactive) | > 100 µM (inactive) | 11.7 µM (inactive) | – | > 100 µM (inactive)
CC(C)(C)NC1C2CCC(C)(C1O)C2(C)C (stereo not given) | > 100 µM (inactive) | > 100 µM (inactive) | > 100 µM (inactive) | 4.14 µM (inactive) | > 100 µM (inactive) | > 100 µM (inactive) | > 100 µM (inactive) | > 100 µM (inactive) | > 100 µM | > 100 µM (inactive) | > 100 µM (inactive) | 3.67 µM (inactive) | – | – | > 100 µM (inactive) | 0.021 µM (active) | > 100 µM (inactive) | – | > 100 µM (inactive) | 2.35 µM (inactive)
ClCCCC1COc2ccccc2O1 (stereo not given) | > 100 µM (inactive) | > 100 µM (inactive) | > 100 µM (inactive) | > 100 µM (inactive) | > 100 µM (inactive) | > 100 µM (inactive) | > 100 µM (inactive) | > 100 µM (inactive) | > 100 µM | > 100 µM (inactive) | > 100 µM (inactive) | 98.6 µM (inactive) | > 100 µM (inactive) | > 100 µM (inactive) | > 100 µM (inactive) | > 100 µM (inactive) | > 100 µM (inactive) | > 100 µM (inactive) | > 100 µM (inactive) | –
COc1cc2cc(C(=O)N3CC(CCl)c4c3cc(NC(=O)C(C)Nc3c([N+](=O)[O-])cc(C(=O)NCCN(C)C)cc3[N+](=O)[O-])c3ccccc43)[nH]c2c(OC)c1OC (stereo not given) | 0.177 µM (active) | 0.129 µM (active) | 0.14 µM (active) | 0.0118 µM (active) | 0.451 µM (active) | 0.229 µM (active) | 0.0178 µM (active) | 0.22 µM (active) | 0.164 µM | 0.055 µM (active) | 0.0363 µM (active) | 0.0586 µM (active) | < 0.01 µM (active) | 0.105 µM (active) | 0.129 µM (active) | 0.0272 µM (active) | 0.182 µM (active) | – | – | 0.212 µM (active)
COc1cc(CNC2=NCCC2)cc(OC)c1OC | > 100 µM (inactive) | > 100 µM (inactive) | > 100 µM (inactive) | > 100 µM (inactive) | > 100 µM (inactive) | 56.1 µM (inactive) | 53.3 µM (inactive) | > 100 µM (inactive) | > 100 µM | > 100 µM (inactive) | 65.5 µM (inactive) | > 100 µM (inactive) | > 100 µM (inactive) | > 100 µM (inactive) | > 100 µM (inactive) | > 100 µM (inactive) | > 100 µM (inactive) | > 100 µM (inactive) | > 100 µM (inactive) | –
COc1cc2c(cc1Cl)[n+]([O-])c(C#N)c(N1CCN(c3ccc([N+](=O)[O-])cc3)CC1)[n+]2[O-] | 17.9 µM (inactive) | 12.4 µM (inactive) | 32 µM (inactive) | 6 µM (inactive) | 0.938 µM (active) | 28.6 µM (inactive) | 7.78 µM (inactive) | 48.5 µM (inactive) | 11.1 µM | 36.9 µM (inactive) | 9.29 µM (inactive) | 11.6 µM (inactive) | 8.73 µM (inactive) | 32.6 µM (inactive) | 14.8 µM (inactive) | 17.4 µM (inactive) | 14.8 µM (inactive) | 51.2 µM (inactive) | 27 µM (inactive) | –
CS/C(=N/S(=O)(=O)c1ccc(Cl)cc1)NCCCN/C(=N\S(=O)(=O)c1ccc(Cl)cc1)SC | 4.62 µM (inactive) | 12.7 µM (inactive) | 80.7 µM (inactive) | 8.28 µM (inactive) | 13 µM (inactive) | 12.7 µM (inactive) | 29.4 µM (inactive) | 23.3 µM (inactive) | 7.76 µM | 22.8 µM (inactive) | 6.11 µM (inactive) | 16.9 µM (inactive) | 16.7 µM (inactive) | 5.08 µM (inactive) | 15.7 µM (inactive) | 15.8 µM (inactive) | 6.15 µM (inactive) | 8.38 µM (inactive) | – | 8.43 µM (inactive)
COc1cc2ccnc3c2c(c1O)N(C)C=C3 | 13.8 µM (inactive) | 7.78 µM (inactive) | 25.5 µM (inactive) | 7.35 µM (inactive) | 7.66 µM (inactive) | 17.4 µM (inactive) | 24.9 µM (inactive) | 4.92 µM (inactive) | 15 µM | – | 4.68 µM (inactive) | 9.93 µM (inactive) | 3.88 µM (inactive) | 13.5 µM (inactive) | 6.12 µM (inactive) | 21.5 µM (inactive) | 15.6 µM (inactive) | – | 14.3 µM (inactive) | 15.9 µM (inactive)
CS(=O)(=O)OCOS(C)(=O)=O | > 100 µM (inactive) | > 100 µM (inactive) | > 100 µM (inactive) | 34.4 µM (inactive) | > 100 µM (inactive) | > 100 µM (inactive) | > 100 µM (inactive) | 69 µM (inactive) | 59.3 µM | 48.3 µM (inactive) | > 100 µM (inactive) | > 100 µM (inactive) | 18.5 µM (inactive) | > 100 µM (inactive) | – | – | > 100 µM (inactive) | 26.7 µM (inactive) | – | > 100 µM (inactive)
